Assays:
[1] = system: MDA-MB-231; assay: Cell viability assay (SRB or CTG) in MDA-MB-231; type: cell-based; conditions: Homo sapiens, MDA-MB-231, 72 h, 3 days after drug treatment
Protocol: (§1) Human breast carcinoma cell line, MDA-MB-231 and human endometrial cancer cell line, HEC-59 were purchased from ATCC (American Type Culture Collection; USA). MDA-MB-231 cells were cultured in Dulbecco's modified Eagle's medium (Lonza, NJ, USA), and HEC-59 were grown in Iscove's Modified Dulbecco's Medium (Lonza, NJ, USA), supplemented with 10% fetal bovine serum (FBS, Lonza), 1% non-essential amino acid (NEAA), 2 mM L-glutamine (Sigma Aldrich, MO, USA) and 50 U/ml penicillin/streptomycin (P/S). All cell lines were tested regularly using MycoAlert Mycoplasma Detection Kit (Lonza). The cumulative length of the cells between thawing and use in the experiments was less than 20 passages.
(§2) 4000 cells/well of MDA-MB-231 and HEC-59 cells were seeded in a 96 well plate in 80 μL media/well. Approximately 18 hours later, 3× drug solutions were prepared by serial dilution (100, 10, 5, 1, 0.5, 0.3, 0.1, 0.05, 0.01 μM), and the drug containing media was added to each well with a volume of 40 μL. For MDA-MB-231, 3 days after drug treatment, the SRB or CTG assay was performed. HEC59, the drug containing media was renewed at day 4. After 7 days total, the SRB or CTG assay was performed.

[2] = system: HEC-59; assay: Cell viability assay (SRB or CTG) in HEC-59; type: cell-based; conditions: Homo sapiens, 7 days total, media renewed at day 4, SRB or CTG
Protocol: as §1, §2

SMILES | IC50 [1] | IC50 [2]
C[C@@H]1CN(c2ncc(F)c(Nc3cc(-c4ccc(OC(F)F)cc4)cnn3)n2)C[C@@H](C)O1 [Compound 90, 5-(4-(difluoromethoxy)phenyl)-N-(2-((2R,6R)-2,6-dimethylmorpholino)-5-fluoropyrimidin-4-yl)pyridazin-3-amine] | 533 nM | 1100 nM
C[C@H]1CN(c2ncc(F)c(Nc3cc(-c4ccc(OC(F)F)cc4)cnn3)n2)C[C@H](C)O1 [Compound 91, 5-(4-(difluoromethoxy)phenyl)-N-(2-((2S,6S)-2,6-dimethylmorpholino)-5-fluoropyrimidin-4-yl)pyridazin-3-amine] | 328 nM | 200 nM
Fc1cnc(N2CCOC3CC32)nc1Nc1cc(-c2ccc(OC(F)F)cc2)cnn1 (stereo not drawn) [Compound 103, N-(2-(2-oxa-5-azabicyclo[4.1.0]heptan-5-yl)-5-fluoropyrimidin-4-yl)-5-(4-(difluoromethoxy)phenyl)pyridazin-3-amine] | > 10000 nM | > 10000 nM
Fc1cnc(N2CCCC2)nc1Nc1cc(-c2ccc(OC(F)F)cc2)cnn1 [Compound 104, 5-(4-(difluoromethoxy)phenyl)-N-(5-fluoro-2-(pyrrolidin-1-yl)pyrimidin-4-yl)pyridazin-3-amine] | 345 nM | 86 nM
C[C@@H]1CN(c2nc(F)cc(Nc3cc(-c4ccc(OC(F)F)cc4)cnn3)n2)C[C@H](C)O1 [Compound 131, 5-(4-(difluoromethoxy)phenyl)-N-(2-((2R,6S)-2,6-dimethylmorpholino)-6-fluoropyrimidin-4-yl)pyridazin-3-amine] | 181 nM | 142 nM
C[C@@H]1CN(c2nccc(Nc3cc(-c4ccc(OC(F)F)cc4)cnc3F)n2)C[C@H](C)O1 [Compound 182, N-(5-(4-(difluoromethoxy)phenyl)-2-fluoropyridin-3-yl)-2-((2R,6S)-2,6-dimethylmorpholino)pyrimidin-4-amine] | 1090 nM | 290 nM
C[C@@H]1CN(c2ccc(F)c(Nc3cc(-c4ccc(OC(F)F)cc4)cnn3)n2)C[C@H](C)O1 [Compound 223, 5-(4-(difluoromethoxy)phenyl)-N-(6-((2R,6S)-2,6-dimethylmorpholino)-3-fluoropyridin-2-yl)pyridazin-3-amine] | 84 nM | 61 nM
C[C@@H]1CN(c2nccc(Nc3cc(-c4ccc(OC(F)F)cc4)c[nH]c3=O)n2)C[C@H](C)O1 [Compound 264, 5-(4-(difluoromethoxy)phenyl)-3-((2-((2R,6S)-2,6-dimethylmorpholino)pyrimidin-4-yl)amino)pyridin-2(1H)-one] | 202 nM | 121 nM
COc1ncc(-c2ccc(OC(F)F)cc2)cc1Nc1ccnc(N2C[C@@H](C)O[C@@H](C)C2)n1 [Compound 305, N-(5-(4-(difluoromethoxy)phenyl)-2-methoxypyridin-3-yl)-2-((2R,6S)-2,6-dimethylmorpholino)pyrimidin-4-amine] | > 10000 nM | > 10000 nM
C[C@@H]1CN(c2ncc(F)c(Nc3cc(-c4ccc(OC(F)F)cc4)c[nH]c3=O)n2)C[C@H](C)O1 [Compound 346, 5-(4-(difluoromethoxy)phenyl)-3-((2-((2R,6S)-2,6-dimethylmorpholino)-5-fluoropyrimidin-4-yl)amino)pyridin-2(1H)-one] | 1050 nM | 784 nM
COc1ncc(-c2ccc(OC(F)F)cc2)cc1Nc1nc(N2C[C@@H](C)O[C@@H](C)C2)ncc1F [Compound 387, N-(5-(4-(difluoromethoxy)phenyl)-2-methoxypyridin-3-yl)-2-((2R,6S)-2,6-dimethylmorpholino)-5-fluoropyrimidin-4-amine] | > 10000 nM | > 10000 nM
C[C@@H]1CN(c2cc(Nc3cc(-c4ccc(OC(F)F)cc4)cnn3)ccn2)C[C@H](C)O1 [Compound 428, 5-(4-(difluoromethoxy)phenyl)-N-(2-((2R,6S)-2,6-dimethylmorpholino)pyridin-4-yl)pyridazin-3-amine] | 794 nM | > 10000 nM
C[C@@H]1CN(c2cc(Nc3cc(-c4ccc(OC(F)F)cc4)cnn3)c(F)cn2)C[C@H](C)O1 [Compound 469, 5-(4-(difluoromethoxy)phenyl)-N-(2-((2R,6S)-2,6-dimethylmorpholino)-5-fluoropyridin-4-yl)pyridazin-3-amine] | 645 nM | 1300 nM
Cc1nnc(Nc2nc(N3C[C@@H](C)O[C@@H](C)C3)ncc2F)cc1-c1ccc(OC(F)F)cc1 [Compound 508, 5-(4-(difluoromethoxy)phenyl)-N-(2-((2R,6S)-2,6-dimethylmorpholino)-5-fluoropyrimidin-4-yl)-6-methylpyridazin-3-amine] | > 10000 nM | 7260 nM
COc1nnc(Nc2nc(N3C[C@@H](C)O[C@@H](C)C3)ncc2F)cc1-c1ccc(OC(F)F)cc1 [Compound 526, 5-(4-(difluoromethoxy)phenyl)-N-(2-((2R,6S)-2,6-dimethylmorpholino)-5-fluoropyrimidin-4-yl)-6-methoxypyridazin-3-amine] | > 10000 nM | 1180 nM
CNc1nnc(Nc2nc(N3C[C@@H](C)O[C@@H](C)C3)ncc2F)cc1-c1ccc(OC(F)F)cc1 [Compound 544, 4-(4-(difluoromethoxy)phenyl)-N6-(2-((2R,6S)-2,6-dimethylmorpholino)-5-fluoropyrimidin-4-yl)-N3-methylpyridazine-3,6-diamine] | > 10000 nM | 2720 nM
C[C@@H]1CN(c2ncc(F)c(Nc3cc(-c4ccc(OC(F)F)cc4)c(C(=O)O)nn3)n2)C[C@H](C)O1 [Compound 562, 4-(4-(difluoromethoxy)phenyl)-6-((2-((2R,6S)-2,6-dimethylmorpholino)-5-fluoropyrimidin-4-yl)amino)pyridazine-3-carboxylic acid] | > 10000 nM | > 10000 nM
CC(=O)c1nnc(Nc2nc(N3C[C@@H](C)O[C@@H](C)C3)ncc2F)cc1-c1ccc(OC(F)F)cc1 [Compound 580, 1-(4-(4-(difluoromethoxy)phenyl)-6-((2-((2R,6S)-2,6-dimethylmorpholino)-5-fluoropyrimidin-4-yl)amino)pyridazin-3-yl)ethan-1-one] | > 10000 nM | > 10000 nM
C[C@@H]1CN(c2ncc(F)c(Nc3cc(-c4ccc(OC(F)F)cc4)c(N)nn3)n2)C[C@H](C)O1 [Compound 598, 5-(4-(difluoromethoxy)phenyl)-N3-(2-((2R,6S)-2,6-dimethylmorpholino)-5-fluoropyrimidin-4-yl)pyridazine-3,6-diamine] | 805 nM | 9850 nM
COC(=O)c1nnc(Nc2nc(N3C[C@@H](C)O[C@@H](C)C3)ncc2F)cc1-c1ccc(OC(F)F)cc1 [Compound 616, methyl 4-(4-(difluoromethoxy)phenyl)-6-((2-((2R,6S)-2,6-dimethylmorpholino)-5-fluoropyrimidin-4-yl)amino)pyridazine-3-carboxylate] | > 10000 nM | > 10000 nM
CNC(=O)c1nnc(Nc2nc(N3C[C@@H](C)O[C@@H](C)C3)ncc2F)cc1-c1ccc(OC(F)F)cc1 [Compound 634, 4-(4-(difluoromethoxy)phenyl)-6-((2-((2R,6S)-2,6-dimethylmorpholino)-5-fluoropyrimidin-4-yl)amino)-N-methylpyridazine-3-carboxamide] | > 10000 nM | > 10000 nM

Source: patent US11986475B1, “Compositions and methods for treating cancer” (A2A Pharmaceuticals, Inc., priority 2022, dated 2024)
